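Five concentrations, 48 hours, 96-well plates. GI50 marks 50% less growth.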 Active and inactive are the calls of the source. No stated cut-off is given here; in the data, active = GI50 up to about 1.1 µM and inactive = higher. A value given as a limit tells only on which side of the number the result lay.

Data on eleven molecules can be found in ChEMBL document CHEMBL1201862, “PubChem BioAssay data set” (2004).

Common to all, as to experiment: growth of human tumour cells (NCI), 48 h
Test [1] deals with K562.
For test [2], the system named is KM12.
In test [3] the test system is M14.
In test [4] the test system is BT-549.
Test [5] relates to HCT-116.
Test [6] has as its system A498.
Test [7] relates to SNB-19.
Test [8] has as its system SF-295.
Test [9] relates to IGROV-1.
Test [10] deals with RXF 393.
Test [11] deals with NCI-H460.
Test [12] relates to MDA-N.
Test [13] relates to HT-29.
Test [14] has as its system MCF7.
In test [15] the test system is Malme-3M.
Test [16] relates to DU-145.
Test [17] concerns SK-MEL-2.
In test [18] the test system is MDA-MB-231.
Test [19] has as its system U-251.
Test [20] relates to SNB-75.

Take `O=C(OCC(OC(=O)c1ccccc1)C(OC(=O)c1ccccc1)C(OC(=O)c1ccccc1)c1cnn(-c2ccccc2)n1)c1ccccc1` (configuration not stated): the GI50 in [1], in [2], in test [3], in test [4], in test [5] and in [6] was > 100 µM (inactive) in each case. The GI50 in test [7], in test [8], in [9], in [10], in test [11] and in [12] was > 100 µM (inactive) each time. The GI50 in test [13], in [14], in test [15] and in test [16] was > 100 µM (inactive) each time.

Regarding `CC(=O)/C=C1\Nc2ccccc2N\C1=C/C(C)=O`, the GI50 in test [1] was 26.6 µM (inactive); in test [2], 24 µM (inactive); in test [17], 20.6 µM (inactive); in [3], 21.6 µM (inactive); in test [4], 35 µM (inactive); in test [18], 22 µM (inactive). For the same molecule, the GI50 in test [5] was 16.9 µM (inactive); in test [6] it was 27.2 µM (inactive); in test [7], 38.5 µM (inactive); in [8], 26.5 µM (inactive); in test [9], 18.8 µM (inactive); in test [10] it was 19.1 µM (inactive). Also, the GI50 is 16.5 µM (inactive) in test [11]; 29.9 µM (inactive) in [12]; 23.8 µM (inactive) in test [19]; 20.1 µM (inactive) in test [13]; 23 µM (inactive) in test [15]; 26.9 µM (inactive) in [20]. The GI50 in [16] is 30 µM (inactive).

In the case of `COc1ccc(-n2c(N)c(C#N)c(C#N)c2-c2ccccc2)cc1`, the GI50 in [2] is > 100 µM (inactive); in test [17] it was 22.8 µM (inactive); in [3], > 100 µM (inactive); in test [4] it was 19.1 µM (inactive); in test [18] it was > 100 µM (inactive); in test [5], > 100 µM (inactive). Moreover, the GI50 in [6] was > 100 µM (inactive); in test [7], 29.6 µM (inactive); in test [8] it was 31.8 µM (inactive); in [9], 24.2 µM (inactive); in [10] it was 23.8 µM (inactive); in test [19] it was 30.1 µM (inactive). The GI50 in [13] is > 100 µM (inactive); in [14], > 100 µM (inactive); in test [15] it was > 100 µM (inactive); in [20], 2.74 µM (inactive); in [16], > 100 µM (inactive).

On to `ClC1(Cl)C2CCOC21n1cnc2ccccc21` (configuration not stated), for which the GI50 in test [1], in test [2], in test [17], in test [3], in [4] and in test [18] was > 100 µM (inactive) each time. Besides, the GI50 in [5], in test [7], in test [8], in [9], in test [10] and in test [12] was > 100 µM (inactive) in each case. Also, the GI50 in test [19], in test [13], in test [14], in [15], in [20] and in test [16] was > 100 µM (inactive) throughout.

In the case of `CC(=O)Oc1c(-c2ccccc2)oc2ccccc12`, the GI50 is 2.06 µM (inactive) in [1]; 1.09 µM (active) in test [2]; 1.8 µM (inactive) in [17]; 2.02 µM (inactive) in [3]; 2.65 µM (inactive) in test [4]; 1.45 µM (inactive) in [18]. Moreover, the GI50 is 1.66 µM (inactive) in test [5]; 2.96 µM (inactive) in test [6]; 1.53 µM (inactive) in [7]; 0.946 µM (active) in test [8]; 2.08 µM (inactive) in test [9]; 1.42 µM (inactive) in test [10]. Moreover, the GI50 is 0.678 µM (active) in test [11]; 1.04 µM (active) in test [19]; 2.5 µM (inactive) in [13]; 2.11 µM (inactive) in test [14]; 2.83 µM (inactive) in test [15]; 1.57 µM (inactive) in [20]. In addition, in test [16], the GI50 is 3.96 µM (inactive).

Consider `CC(C)(C)OC(=O)N1C(=O)C2CCCC21` (configuration not stated), for which the GI50 in test [2], in [17], in test [3], in [4], in [18] and in test [5] was > 100 µM (inactive) each time. For the same molecule, the GI50 in test [6], in test [7], in [9], in test [10], in test [11] and in [19] was > 100 µM (inactive) each time. The GI50 in test [13], in [20] and in test [16] was > 100 µM (inactive) in each case.

`COc1ccc(C(=O)NCCC2CN(S(=O)(=O)C(F)(F)F)c3ccccc32)c(OC)c1` (configuration not stated): the GI50 is 28.3 µM (inactive) in test [1]; 21.3 µM (inactive) in test [2]; 53.6 µM (inactive) in [17]; 35.1 µM (inactive) in [3]; > 100 µM (inactive) in test [18]; 35.8 µM (inactive) in test [5]. The GI50 is > 100 µM (inactive) in test [6]; 54.5 µM (inactive) in test [7]; 68.9 µM (inactive) in [8]; 61.4 µM (inactive) in [9]; > 100 µM (inactive) in test [10]; 33.6 µM (inactive) in test [11]. Also, the GI50 in test [12] was 33.2 µM (inactive); in test [19], 30.3 µM (inactive); in test [13], 22.7 µM (inactive); in [14], 52.1 µM (inactive); in test [15], 7.06 µM (inactive); in test [16], > 100 µM (inactive).

`CCCCc1ccc(Nc2cc(=O)n(C)c(=O)[nH]2)cc1`: the GI50 in test [1] is 85.7 µM (inactive); in test [2], 49.4 µM (inactive); in test [17] it was > 100 µM (inactive); in test [3], > 100 µM (inactive); in test [4], > 100 µM (inactive); in test [18], 89.7 µM (inactive). Moreover, the GI50 in test [5] is 72.6 µM (inactive); in test [6], > 100 µM (inactive); in test [7], 52.1 µM (inactive); in test [8], > 100 µM (inactive); in test [9], > 100 µM (inactive); in [10], > 100 µM (inactive). Moreover, the GI50 in [11] is 32.2 µM (inactive); in [12], > 100 µM (inactive); in test [19], 54.3 µM (inactive); in test [13], > 100 µM (inactive); in test [14] it was 22.9 µM (inactive); in test [15], > 100 µM (inactive). In [20], the GI50 is > 100 µM (inactive).

Consider `Cc1ccc2nc(CN3CCCCC3)cc(=O)n2c1`, for which the GI50 in test [1], in [2], in test [17], in test [3], in [4] and in test [18] was > 100 µM (inactive) in each case. The GI50 in [5], in [7], in test [8], in test [9], in [11] and in test [19] was > 100 µM (inactive) each time. Further, the GI50 in [13], in test [14], in [15], in test [20] and in test [16] was > 100 µM (inactive) each time.

As to `O=C1C(=C(C(F)(F)Cl)C(F)(F)Cl)C2CCC1C2` (configuration not stated), the GI50 was 0.63 µM (active) in test [1]; 3.01 µM (inactive) in test [2]; 1.78 µM (inactive) in test [17]; 1.16 µM (inactive) in test [3]; 1.58 µM (inactive) in test [4]; 1.56 µM (inactive) in test [18]. The GI50 in [5] was 1.9 µM (inactive); in test [6], > 10 µM (inactive); in [7], > 10 µM (inactive); in [8] it was 4.67 µM (inactive); in [9] it was 1.89 µM (inactive); in [10], 1.63 µM (inactive). The GI50 in test [11] is 3.15 µM (inactive); in test [19], 5.27 µM (inactive); in [13], 2.19 µM (inactive); in [14], 2.49 µM (inactive); in [15], 1.55 µM (inactive); in test [20] it was 4.3 µM (inactive). The GI50 in [16] was 7.53 µM (inactive).

Regarding `COc1cc(C2(O)c3ccccc3C3=NCCN32)cc(OC)c1OC` (configuration not stated), the GI50 in test [1], in test [2], in [17], in test [4], in [18] and in test [5] was > 100 µM (inactive) throughout. Besides, the GI50 in test [6] was > 100 µM (inactive); in test [7], 79.4 µM (inactive); in test [8], > 100 µM (inactive); in test [11], > 100 µM (inactive); in [12], > 100 µM (inactive); in test [19] it was > 100 µM (inactive). For the same molecule, the GI50 in test [13], in test [20] and in test [16] was > 100 µM (inactive) in each case.
